# Measurements: paper PMC6615598, “Novel antibiotics effective against gram-positive and -negative multi-resistant bacteria with limited resistance” (PLoS Biology, 2019)
# Several values for one entry are separate records, joined by “and”; a condition that tells them apart may be missing. Equal values may be shown once. Starred links: 1 amine or outer side, 2 acyl side, 3 side chain; linkers in the order of their positions; H or OH if unused. Non-standard residues stand in square brackets, D forms with d. Residues, ends and D or L forms follow the SMILES beside them. azaβ3(1Nal) = O=C(CN(Cc1cccc2ccccc12)N[*:1])[*:2]
# Experiments:
# MRSA (Mu3) = experiment: microbe, parasite or virus in culture; conditions: 15 colonies
# Experimental: For 15 d in MHB, MICs were determined daily for each pseudopeptide and their antibiotic controls. This was done using cells from the well in which the compound concentration was one-half of the MIC (1/2MIC). For each compound, the 1/2MIC well from the previous day’s MIC assay plate was re-suspended and the bacteria grown to a density of about 10^8 cells ml−1. The suspension was diluted in MHB or CAMHB (10^6 cells/ml) and then used to determine the MIC of the same compound determined by micro broth dilution. All MIC measurements were performed in duplicate. Aliquots of the 5 × 10^4 cell/ml dilutions for each 1/2MIC well were periodically plated on MHB and incubated at 35°C for 18 h to verify cell density by colony counts and for visual inspection of colony phenotypes. To control compound stability, peptide solution MICs were determined during and at the end of the 15 d and were compared to cells unexposed to antibiotics. In vivo resistance was also assessed in treated mice (1.5 mg.kg^−1) for 4 d (sepsis) or 6 d (skin abscesses). […] The broth microdilution method was performed as per EUCAST recommendations on 5 independent colonies per mouse (3 mice per set, 15 colonies per drug tested). For severe sepsis and subcutaneous abscesses, in vivo resistance was determined by plating aliquots of crude kidney extracts or abscesses on plates containing 1-, 2-, 4-, or 8-fold the peptide MICs 7 or 3 d post infections, respectively.
# S. aureus MRSA = experiment: Cutaneous abscess mouse model (lesion size, CFU); format: in vivo, mice
# Experimental: For the cutaneous abscess model, the mice were randomly divided into 5 sets. The mice were anesthetized with isoflurane, their dorsal fur shaved, and their skin disinfected with 70% ethanol. An overnight culture of S. aureus MRSA or P. aeruginosa LESB58 was washed with 0.9% NaCl, and then a subcutaneous injection of 2 × 10^9 CFUs and an equal amount of sterile Cytodex microcarrier beads (20 mg.ml^−1, Sigma) for S. aureus MRSA, or 10^8 CFUs for P. aeruginosa were injected into the shaved area. […] Mice were monitored every day and then euthanized with CO2 on Day 6 or on Day 3. Abscesses were excised, measured, and homogenized in PBS using an Ultra-Turax. Serial dilutions of the samples were plated on BHI (MRSA) or 2YT medium (LESB58) plates and then incubated overnight at 37°C. Afterward, the CFUs were counted and expressed as log CFU/ml. Dermonecrosis areas were calculated according to the formula π × L × W. ATP levels were determined with an ATP assay kit (Promega) according to manufacturer instructions on sets of 5 colonies harboring the SCV phenotype, and sets of 5 colonies harboring a normal phenotype, after growth on BHI plates.
# E. coli ML-35p = experiment: Outer membrane permeability, nitrocefin cleavage; format: cell-based; conditions: concentration near MIC
# Experimental: Outer and inner membrane permeability was determined on E. coli ML-35p, a lactose permease-deficient strain [8]. Permeation assays were carried out on 100 μl MHB from bacteria cultures grown to 0.15 OD600 (10^7 CFU/ml). Nitrocefin (20 μg/ml) was added to the tested molecules at a concentration near to their MICs, and cleavage was monitored by light absorption at 500 nm (outer membrane monitoring). Inner membrane monitoring of cleavage of ONPG (100 μg/ml) and substrate was monitored at 420 nm. Polymyxin B was a positive control, while a bacterial suspension in MHB was the negative control. Permeation assays were also performed on gram-positive S. aureus membranes (MSSA and MRSA) by fluorescence assay with SYTO Green nucleic acid stain (Life Technologies) in black flat-bottom 96-well microtiter plates (Greiner) in biological triplicate. Bacteria were grown to 0.3–0.4 OD600 in CAMHB at 37°C and centrifuged at 3,500 tr/min for 10 min. The pellet was washed and dissolved in PBS to an absorbance of 0.4 at 600 nm (approximately 2.10^8 CFU/ml). […] The amount of 50 μL of bacteria/SYTO Green mixture was added to each well containing compounds serially diluted in PBS, and fluorescence was measured at 37°C for up to 12 h using a spectrophotometer (BIOTEK, Tungsten-Halogen Lamp) with 485 nm excitation and 525 nm emission wavelengths.
# [1] = mice, MRSA subcutaneous, single IV 1.5 mg.kg^−1 at 24 h, 6 days post infection
compound,measurement,setting,value
CC(C)[C@@H]1NC(=O)[C@H](CCCNC(=N)N)NC(=O)[C@H](CCCNC(=N)N)NC(=O)CN(Cc2cccc3ccccc23)NC(=O)[C@H](Cc2ccccc2)NC(=O)CN(Cc2cccc3ccccc23)NC(=O)[C@H](CCCCN)NC1=O [Pep19] (cyclo([azaβ3(1Nal)]F[azaβ3(1Nal)]RRVK)),MIC,"MRSA (Mu3); MRSA colonies from kidneys of septic mice, d4, single IV 1.5 mg.kg^−1 at 3 h or 15 h",8 (8.8) μM
same,MIC,"MRSA (Mu3); MRSA colonies from mice skin abscess, d6, single IV 1.5 mg.kg^−1 at 24 h",16 (16.2) μM
same,"CFU counts per abscess, SCV","S. aureus MRSA; cutaneous abscesses from MRSA in mice, IV 24 h post-infection, 1.5 mg.kg-1, SCV, individual values",5.62 log Cfu/ml and 5.85 log Cfu/ml and 5.73 log Cfu/ml and 5.93 log Cfu/ml and 5.11 log Cfu/ml and 4.73 log Cfu/ml and 4.55 log Cfu/ml and 5.5 log Cfu/ml and 5.67 log Cfu/ml
same,Area of dermonecrosis,"S. aureus MRSA; cutaneous abscesses from MRSA in mice, IV 24 h post-infection, 1.5 mg.kg-1, individual values",165.8 mm2 and 78.8 mm2 and 98.9 mm2 and 174.7 mm2 and 106.7 mm2 and 160.2 mm2 and 96.4 mm2 and 106.4 mm2 and 176.2 mm2
same,Bacterial content of skin abscess,S. aureus MRSA; [1],strong reduction
same,Skin abscess volume,S. aureus MRSA; [1],strong reduction
same,Outer membrane permeation,E. coli ML-35p,most active
